Common to all, as to type: cell-based
For experiment [1], the system named is PD1-ss+10aa/Gaussia Luciferase. Put plainly: Dox-Induced PD1-ss-Gluc Assay. The following applies: 293FRT/TO cells, read-out: 24 hr Dox Inducible PD1ssGluc 293FRT/TO: Mean IC50. Put shortly: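 Stable cell line carrying PD1-ss+10aa/Gaussia luciferase cDNA under T-REx (doxycycline-inducible) control, plated the day before assay. Compound dilutions in DMSO/media containing doxycycline added and incubated at 37° C, 5% CO2. Undefined stereocentres: data refer to stereoisomer mixtures.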

The test system of experiment [2] is IL-2-FL/Gaussia Luciferase. Put plainly: Dox Induced IL2-FL-Gluc Assay. The following applies: 293FRT/TO cells, read-out: 24 hr Dox Inducible IL2FLGIuc 293FRT/TO: Mean IC50. Put shortly:
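Stable T-REx cell line expressing doxycycline-inducible IL-2-FL/Gaussia luciferase cDNA, plated the day before assay. Compound dilutions in DMSO/media containing doxycycline added and incubated at 37° C., 5% CO2. Unspecified stereochemistry means data refer to a stereoisomer mixture.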

Experiment [3] deals with human multiple myeloma cell line NCI-H929. Put plainly: H929 Cell Viability Assay. The following applies: 48 hr, NCI-H929 cells, Celltiter-Glo, read-out: 48 hr H929 Viability Celltiter-Glo: Mean EC50. Here is the method:
Plates were incubated at 37° C., 5% CO2 for 48 hours. After 48 hours, Celltiter-Glo® (Promega) was added to each well and luciferase signal was quantified using Tecan Infinite M1000 Pro for cell viability determination.
For chemical structures that include one or more stereoisomers, but are illustrated without indicating stereochemistry, the assay data refers to a mixture of stereoisomers.

The subject of experiment [4] is human multiple myeloma cell line U266B1. Kind of experiment: U266 Cell Viability Assay. The settings on record: U-266, 48 hr, U266B1 cells, Celltiter-Glo, read-out: 48 hr U266 Viability Celltiter-Glo: Mean EC50. Put shortly:
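U266B1 myeloma cells treated with compound dilutions in DMSO/media for 48 h at 37 °C, 5% CO2. Viability read by CellTiter-Glo luminescence. Stereochemically undefined structures were tested as stereoisomer mixtures.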

In experiment [5] the test system is HER3-ss+4aa/Gaussia Luciferase. Kind of experiment: Dox-Induced Her3-ss-Gluc Assay. The settings on record: 293FRT/TO cells, read-out: 24 hr Dox Inducible Her3(ss + 4)Gluc 293FRT/TO: Mean IC50. Put shortly: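 Stable T-REx cell line carrying a doxycycline-regulated HER3-ss+4aa/Gaussia luciferase insert, plated the day before assay. Compound dilutions in DMSO/media with doxycycline added, then incubated at 37° C., 5% CO2. Stereoisomer mixtures tested where stereochemistry is not drawn.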

Experiment [6] relates to TNFα-FL/Gaussia Luciferase. Put plainly: Dox Induced TNFα-FL-Gluc Assay. The following applies: 293FRT/TO cells, read-out: 24 hr Dox Inducible TNFaFLGluc 293FRT/TO: Mean IC50. Put shortly:
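A stable T-REx cell line carrying doxycycline-inducible TNFα-FL/Gaussia luciferase was plated the day before assay. Compound dilutions in DMSO/media containing doxycycline were then added and incubated at 37° C, 5% CO2.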

Setting [7] is: 24 hr doxycycline induction, Gaussia luciferase signal.

Each structure is given as a SMILES string. pEC50, pIC50: −log10 of the molar value. Read-outs that look alike come from different tables or passages of the source. Bounds are passed on as bounds.

The text below walks through data of patent US20220153732A1, “PROTEIN SECRETION INHIBITORS” (KEZAR LIFE SCIENCES, priority 2019, published 2022).

With `O=C(Nc1nc([C@@H]2CCC(=O)N2Cc2ccccc2)cs1)c1cccn1Cc1ccncc1` [Compound A320], the pIC50 in experiment [1] (24 hr, doxycycline-induced) is 4.98; in experiment [2] (24 hr, doxycycline-induced), less than 4.60; in experiment [5] (24 hr, doxycycline-induced) it was less than 4.60; in experiment [6] (24 hr, doxycycline-induced) it was less than 4.60. Further, the negative-log EC50 (pEC50) in experiment [3] and in experiment [4] was less than 4.60 each time.
On to `Cc1nc(NC(=O)c2cccn2Cc2ccncc2)sc1C` [Compound A58, N-(4,5-dimethylthiazol-2-yl)-1-(pyridin-4-ylmethyl)-1H-pyrrole-2-carboxamide], for which the pIC50 is 5.82 in experiment [1] (setting [7]), 5.15 in experiment [2] (setting [7]), 5.45 in experiment [5] (setting [7]) and less than 4.60 in experiment [6] (setting [7]). Besides, the pEC50 in experiment [3] and in experiment [4] was less than 4.60 in each case.
For `CO[C@H]1C[C@H](c2csc(NC(=O)c3cccn3Cc3ccncc3)n2)N(c2ccccc2)C1` [Compound A333], the pIC50 was 7.68 in experiment [1] (24 hr, doxycycline-induced); 7.57 in experiment [2] (24 hr, doxycycline-induced); 7.38 in experiment [5] (24 hr, doxycycline-induced); 6.78 in experiment [6] (24 hr, doxycycline-induced). Moreover, the negative-log EC50 (pEC50) in experiment [3] was 5.83; in experiment [4], less than 4.60.
As for `O=C(Nc1nc([C@H]2CC[C@@H](c3ccccc3)C2)cs1)c1cccn1Cc1ccncc1` (stereo in doubt) [Compound A305, N-(4-((1S,3R)-3-phenylcyclopentyl)thiazol-2-yl)-1-(pyridin-4-ylmethyl)-1H-pyrrole-2-carboxamide], the pIC50 in experiment [1] (24 hr, doxycycline-induced) is 6.71; in experiment [2] (24 hr, doxycycline-induced), 6.18; in experiment [5] (24 hr, doxycycline-induced), 6.38; in experiment [6] (24 hr, doxycycline-induced), 5.66. In addition, the negative-log EC50 (pEC50) is 4.91 in experiment [3] and less than 4.60 in experiment [4].
Consider `CC(C)OC(C)(C)c1csc(NC(=O)c2ccnn2Cc2ccncc2)n1` [Compound A112, N-(4-(2-isopropoxypropan-2-yl)thiazol-2-yl)-1-(pyridin-4-ylmethyl)-1H-pyrazole-5-carboxamide], for which the pIC50 in experiment [1] (setting [7]), in experiment [2] (setting [7]), in experiment [5] (setting [7]) and in experiment [6] (setting [7]) was less than 4.60 each time. Moreover, the negative-log EC50 (pEC50) in experiment [3] and in experiment [4] was less than 4.60 in each case.
For the compound `CC(C)OC(C)(C)c1csc(NC(=O)c2cccn2Cc2ccncc2)n1` [Compound A16, N-(4-(2-isopropoxypropan-2-yl)thiazol-2-yl)-1-(pyridin-4-ylmethyl)-1H-pyrrole-2-carboxamide], the pIC50 in experiment [1] (setting [7]) is 6.73; in experiment [2] (setting [7]), 6.58; in experiment [5] (setting [7]), 6.42; in experiment [6] (setting [7]), 5.30. Also, the negative logarithm of the EC50 (pEC50) is less than 4.62 in experiment [3] and less than 4.60 in experiment [4].
For the compound `O=C(Nc1nc(CCc2ccccc2Cl)cs1)c1cccn1Cc1ccncc1` [Compound A178], the pIC50 in experiment [1] (setting [7]) was 6.82; in experiment [2] (setting [7]), 6.30; in experiment [5] (setting [7]), 6.44; in experiment [6] (setting [7]) it was 6.03. For the same compound, the negative logarithm of the EC50 (pEC50) is 5.03 in experiment [3] and 4.70 in experiment [4].
Regarding `O=C(Nc1nc2cccnc2s1)c1cccn1Cc1ccncc1` [Compound A121], the pIC50 in experiment [1] (setting [7]), in experiment [2] (setting [7]), in experiment [5] (setting [7]) and in experiment [6] (setting [7]) was less than 4.60 throughout. The negative logarithm of the EC50 (pEC50) in experiment [3] and in experiment [4] was less than 4.60 in each case.
Take `O=C(Nc1nc(/C=C/c2cccc(Cl)c2)cs1)c1cccn1Cc1ccncc1` [Compound A209, N-(4-(3-chlorostyryl)thiazol-2-yl)-1-(pyridin-4-ylmethyl)-1H-pyrrole-2-carboxamide]: the pIC50 was 6.63 in experiment [1] (setting [7]), 5.91 in experiment [2] (setting [7]), 6.24 in experiment [5] (setting [7]) and 5.32 in experiment [6] (setting [7]). Further, the negative logarithm of the EC50 (pEC50) in experiment [3] and in experiment [4] was less than 4.60 each time.
In the case of `CC(OC(C)(C)c1csc(NC(=O)c2cccn2Cc2ccncc2)n1)c1ccccc1Cl` (stereo not drawn) [Compound A8, N-(4-(2-(1-(2-chlorophenyl)ethoxy)propan-2-yl)thiazol-2-yl)-1-(pyridin-4-ylmethyl)-1H-pyrrole-2-carboxamide], the pIC50 in experiment [1] (setting [7]) is 7.24; in experiment [2] (setting [7]), 6.78; in experiment [5] (setting [7]), 6.76; in experiment [6] (setting [7]), 6.38. Besides, the pEC50 in experiment [3] was 5.41; in experiment [4], 5.10.
`CC(=O)Nc1ccc(Cn2cccc2C(=O)Nc2nc(C(C)(C)OC(C)C)cs2)cc1` [Compound A114, 1-(4-acetamidobenzyl)-N-(4-(2-isopropoxypropan-2-yl)thiazol-2-yl)-1H-pyrrole-2-carboxamide]: the pIC50 in experiment [1] (setting [7]), in experiment [2] (setting [7]), in experiment [5] (setting [7]) and in experiment [6] (setting [7]) was less than 4.60 in each case. Also, the pEC50 in experiment [3] and in experiment [4] was less than 4.60 each time.
In the case of `CC(C)c1cnc(NC(=O)c2cccn2Cc2ccncc2)s1` [Compound A55], the pIC50 in experiment [1] (setting [7]) was 5.86; in experiment [2] (setting [7]), 5.40; in experiment [5] (setting [7]) it was 5.50; in experiment [6] (setting [7]), less than 4.60. Also, the negative-log EC50 (pEC50) in experiment [3] and in experiment [4] was less than 4.60 each time.
As for `CC(C)OC(C)(C)c1csc(NC(=O)c2nccn2Cc2ccncc2)n1` [Compound A108, N-(4-(2-isopropoxypropan-2-yl)thiazol-2-yl)-1-(pyridin-4-ylmethyl)-1H-imidazole-2-carboxamide], the pIC50 in experiment [1] (setting [7]) is less than 4.60; in experiment [2] (setting [7]), 5.14; in experiment [5] (setting [7]), less than 4.60; in experiment [6] (setting [7]), less than 4.60. The negative logarithm of the EC50 (pEC50) in experiment [3] and in experiment [4] was less than 4.60 each time.
Regarding `O=C(Nc1nc(CCc2ccc(Cl)cc2)cs1)c1cccn1Cc1ccncc1` [Compound A180], the pIC50 in experiment [1] (setting [7]) was 7.24; in experiment [2] (setting [7]), 6.55; in experiment [5] (setting [7]) it was 6.81; in experiment [6] (setting [7]) it was 6.13. The results for the pEC50 in experiment [3] and in experiment [4] were 5.14 and 5.19, respectively.
Turning to `C[C@@H](OC(C)(C)c1csc(NC(=O)c2cccn2Cc2ccncc2)n1)c1ccccc1` [Compound A18, (R)-N-(4-(2-(1-phenylethoxy)propan-2-yl)thiazol-2-yl)-1-(pyridin-4-ylmethyl)-1H-pyrrole-2-carboxamide], the pIC50 in experiment [1] (setting [7]) is 6.65; in experiment [2] (setting [7]) it was 6.14; in experiment [5] (setting [7]) it was 6.34; in experiment [6] (setting [7]) it was 5.87. Besides, the negative-log EC50 (pEC50) in experiment [3] was 4.82; in experiment [4], less than 4.60.
On to `CC(C)OC(C)(C)c1csc(NC(=O)c2cncn2Cc2ccncc2)n1` [Compound A104, N-(4-(2-isopropoxypropan-2-yl)thiazol-2-yl)-1-(pyridin-4-ylmethyl)-1H-imidazole-5-carboxamide], for which the pIC50 in experiment [1] (setting [7]), in experiment [2] (setting [7]), in experiment [5] (setting [7]) and in experiment [6] (setting [7]) was less than 4.60 in each case. The negative logarithm of the EC50 (pEC50) in experiment [3] and in experiment [4] was less than 4.60 each time.
Take `CC(C)OC(C)(C)c1csc(NC(=O)c2ccccc2N2CCOCC2)n1` [Compound A340]: the pIC50 in experiment [1] (24 hr, doxycycline-induced) is less than 4.60; in experiment [2] (24 hr, doxycycline-induced), less than 4.60; in experiment [5] (24 hr, doxycycline-induced) it was less than 4.60; in experiment [6] (24 hr, doxycycline-induced), less than 4.60. The pEC50 in experiment [3] and in experiment [4] was less than 4.60 in each case.
On to `O=C(Nc1nc(/C=C/c2ncccn2)cs1)c1cccn1Cc1ccncc1` [Compound A307], for which the pIC50 in experiment [1] (24 hr, doxycycline-induced) was 6.17; in experiment [2] (24 hr, doxycycline-induced) it was less than 4.60; in experiment [5] (24 hr, doxycycline-induced), 5.05; in experiment [6] (24 hr, doxycycline-induced), less than 4.60. Moreover, the negative logarithm of the EC50 (pEC50) in experiment [3] and in experiment [4] was less than 4.60 in each case.
As to `CC(F)(F)c1csc(NC(=O)c2cccn2Cc2ccncc2)n1` [Compound A29, N-(4-(1,1-difluoroethyl)thiazol-2-yl)-1-(pyridin-4-ylmethyl)-1H-pyrrole-2-carboxamide], the pIC50 in experiment [1] (setting [7]) is 6.31; in experiment [2] (setting [7]), 6.03; in experiment [5] (setting [7]), 5.91; in experiment [6] (setting [7]), 4.71. Also, the pEC50 in experiment [3] and in experiment [4] was less than 4.60 in each case.
